Assay results reported in patent EP3875456A1, “HETERO-BIFUNCTIONAL PROTEOLYSIS-TARGETING CHIMERAS (PROTACS) FOR THE SELECTIVE DEGRADATION OF FK506-BINDING PROTEINS (FKBPS)” (Technische Universität Darmstadt, priority 2020, dated 2021).

Legend:
FKBP51FK1 = molecular target: T1, FKBP51FK1 (Homo sapiens, UniProt Q13451); assay: Binding affinities of exemplary compounds to FKBP51
T1 construct: FKBP51FK1
T1 sequence (Q13451 42-130 limits assumed): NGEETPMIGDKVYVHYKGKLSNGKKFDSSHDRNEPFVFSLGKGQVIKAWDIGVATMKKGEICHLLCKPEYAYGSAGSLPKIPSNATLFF
Description: Binding to FKBP51 is an important prerequisite in order to allow degradation of FKBP51. Thus, the binding affinities of the newly synthesized molecules (table 1) were tested.

FKBP51 [1] = molecular target: T2, FKBP51 (Homo sapiens, UniProt Q13451); assay: Degradation of FKBP51 in HEK293T cells (Western blot); assay type: cell-based; parameters: Upper blot: Endogeneous FKBP51; endogenous in cells; details: 48 h incubation, endogeneous FKBP51, Western Blot, GAPDH control
T2 sequence (Q13451 1-457): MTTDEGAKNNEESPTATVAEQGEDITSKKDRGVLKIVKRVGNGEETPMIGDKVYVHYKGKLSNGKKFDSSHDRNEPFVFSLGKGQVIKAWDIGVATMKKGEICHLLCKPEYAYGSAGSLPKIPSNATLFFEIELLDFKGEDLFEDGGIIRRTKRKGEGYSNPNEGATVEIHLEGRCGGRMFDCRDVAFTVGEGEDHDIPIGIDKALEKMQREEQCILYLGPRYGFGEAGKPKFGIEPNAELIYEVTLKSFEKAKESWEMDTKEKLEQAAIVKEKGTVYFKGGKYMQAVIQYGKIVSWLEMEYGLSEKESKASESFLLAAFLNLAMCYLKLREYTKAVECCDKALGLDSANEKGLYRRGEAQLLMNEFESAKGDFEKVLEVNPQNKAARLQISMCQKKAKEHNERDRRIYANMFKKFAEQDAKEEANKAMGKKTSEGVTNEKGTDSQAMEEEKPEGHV
Description: (§1) HEK293T cells were incubated with the PROTAC MTQ202. 35,000 cells per well in a 24 well format. Figure 3-Upper blot: Endogeneous FKBP51. Figure 3-Lower blot: GAPDH. Cells were treated with the compound for 48 h before lysis. All samples have been exposed to a constant DMSO concentration. Lysate protein concentration was quantified via BCA assay and normalized with Lämmli buffer. Equal amounts of total protein were subjected to SDS-Page and Western Blot afterwards.

FKBP51 [2] = molecular target: T2, FKBP51; assay: Degradation of FKBP51 in HeLa cells (Western blot); assay type: cell-based; parameters: Upper blot: Endogeneous FKBP51; endogenous in cells; host or cells: HeLa; details: 24 h incubation, endogeneous FKBP51, Western Blot, GAPDH control
Description: as §1, with “HeLa” for “HEK293T”, “2 - Upper” for “3-Upper”, “2 - Lower” for “3-Lower”, “24” for “48”

Row | SMILES | Ki (FKBP51FK1) [nM] | Degradation of FKBP51 (FKBP51 [1]) | Degradation of FKBP51 (FKBP51 [2])
1 | COc1ccc(CC[C@H](OC(=O)[C@H]2CCCCN2C(=O)[C@H](c2cc(OC)c(OC)c(OC)c2)C2CCCCC2)c2cccc(OCc3cn(CCOCCOCCOCCOCC(=O)N[C@H](C(=O)N4C[C@H](O)C[C@H]4C(=O)NCc4ccc(-c5scnc5C)cc4)C(C)(C)C)nn3)c2)cc1OC (stereo in doubt) [MTQ202, (S)-(R)-3-(3,4-Dimethoxyphenyl)-1-(3-((1-((S)-16-((2S,4R)-4-hydroxy-2-((4-(4-methylthiazol-5-yl)benzyl)carbamoyl)pyrrolidine-1-carbonyl)-17,17-dimethyl-14-oxo-3,6,9,12-tetraoxa-15-azaoctadecyl)-1H-1,2,3-triazol-4-yl)methoxy)phenyl)propyl 1-((S)-2-cyclohexyl-2-(3,4,5-trimethoxyphenyl)acetyl)piperidine-2-carboxylate] | 24 ± 8 | clearly visible, but not complete | clearly visible, but not complete
2 | COc1cccc([C@H](CCc2ccc(OCc3cn(CCOCC(=O)N[C@H](C(=O)N4C[C@H](O)C[C@H]4C(=O)NCc4ccc(-c5scnc5C)cc4)C(C)(C)C)nn3)c(OC)c2)OC(=O)[C@H]2CCCCN2C(=O)[C@H](c2cc(OC)c(OC)c(OC)c2)C2CCCCC2)c1 [MTQ328, (S)-(R)-3-(4-((1-(2-(2-(((S)-1-((2S,4R)-4-Hydroxy-2-((4-(4-methylthiazol-5-yl)benzyl)carbamoyl)pyrrolidin-1-yl)-3,3-dimethyl-1-oxobutan-2-yl)amino)-2-oxoethoxy)ethyl)-1H-1,2,3-triazol-4-yl)methoxy)-3-methoxyphenyl)-1-(3-methoxyphenyl)propyl 1-((S)-2-cyclohexyl-2-(3,4,5-trimethoxyphenyl)acetyl)piperidine-2-carboxylate] | 47 ± 19 |  | 
3 | COc1cccc([C@@H](CCc2ccc(OCc3cn(CCOCCOCCOCCOCCOCC(=O)N[C@H](C(=O)N4C[C@H](O)C[C@H]4C(=O)NCc4ccc(-c5scnc5C)cc4)C(C)(C)C)nn3)c(OC)c2)OC(=O)[C@@H]2CCCCN2C(=O)[C@H](c2cc(OC)c(OC)c(OC)c2)C2CCCCC2)c1 [MTQ332, (S)-(R)-3-(4-((1-((S)-19-((2S,4R)-4-Hydroxy-2-((4-(4-methylthiazo1-5-yl)benzyl)carbamoyl)pyrrolidine-1-carbonyl)-20,20-dimethyl-17-oxo-3,6,9,12,15-pentaoxa-18-azahenicosyl)-1H-1,2,3-triazol-4-yl)methoxy)-3-methoxyphenyl)-1-(3-methoxyphenyl)propyl 1-((S)-2-cyclohexyl-2-(3,4,5-trimethoxyphenyl)acetyl)piperidine-2-carboxylate] | 34 ± 10 |  | 
4 | COc1cccc([C@H](CCc2ccc(OCc3cn(CCOCCOCCOCC(=O)N[C@H](C(=O)N4C[C@H](O)C[C@H]4C(=O)NCc4ccc(-c5scnc5C)cc4)C(C)(C)C)nn3)c(OC)c2)OC(=O)[C@H]2CCCCN2C(=O)[C@H](c2cc(OC)c(OC)c(OC)c2)C2CCCCC2)c1 [MTQ330, (S)-(R)-3-(4-((1-((S)-13-((2S,4R)-4-Hydroxy-2-((4-(4-methylthiazol-5-yl)benzyl)carbamoyl)pyrrolidine-1-carbonyl)-14,14-dimethyl-11-oxo-3,6,9-trioxa-12-azapentadecyl)-1H-1,2,3-triazol-4-yl)methoxy)-3-methoxyphenyl)-1-(3-methoxyphenyl)propyl 1-((S)-2-cyclohexyl-2-(3,4,5-trimethoxyphenyl)acetyl)piperidine-2-carboxylate] | 86 ± 26 |  | 
5 | COc1ccc(CC[C@@H](OC(=O)[C@@H]2CCCCN2C(=O)[C@H](c2cc(OC)c(OC)c(OC)c2)C2CCCCC2)c2cccc(OCc3cn(CCOCCOCC(=O)N[C@H](C(=O)N4C[C@H](O)C[C@H]4C(=O)NCc4ccc(-c5scnc5C)cc4)C(C)(C)C)nn3)c2)cc1OC [MTQ200] | 24 ± 7 |  | 
